Consider 16 compounds from PubChem BioAssay (NCI).

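All cell lines were grown in 96-well plates and treated with compound for 48 hours. GI50: concentration for 50% inhibition of growth. TGI marks complete inhibition of growth.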

For one assay, the system named is LOX IMVI melanoma. Kind of assay: NCI tumour cell line growth inhibition, 48 h.
Consider `CC[n+]1ccc2c(c1)C(=O)c1nccc3c1c-2nc1ccccc13`, for which the GI50 is 2.19 µM and the TGI is 7.93 µM.
For the compound `COc1ccc(CNC(=O)COc2ccc(/C=N/Nc3nc4ccccc4s3)cc2)cc1`, the GI50 is 3.04 µM and the TGI is over 100 µM.
In turn, `CCOC(=O)CCCO` displayed a TGI of over 100 µM.
For the compound `COC(=O)[C@@H](C)C[C@H](Cc1ccccc1)NC(=O)c1nc([C@@H](C[C@H](C(C)C)N(C)C(=O)[C@@H](NC(=O)[C@H]2CCCN2C)C(C)C)OC(C)=O)sc1C`, the GI50 is 0.00837 µM and the TGI is over 25 µM.
On the same counts, the results for `ClCc1ccccc1CSc1ncnc2nc[nH]c12` are over 60 µM and over 60 µM.
In turn, `O=C(O)Cc1c[nH]c2ccc(F)cc12` showed a TGI of over 100 µM.
As to `COC(=O)C(CC(=O)c1cc2c(cc1I)OCO2)Cc1cc(OC)c(OC)c(OC)c1I` (stereo not drawn), the TGI was over 100 µM.
With `C/C(=N\NC(N)=S)c1ccc(C)cc1C`, the TGI was over 100 µM.
In turn, `COc1cc2c(cc1O)[C@H](Cc1ccc(Oc3cc(C[C@H]4c5cc(OC)c(OC)cc5CCN4C)ccc3OC)cc1)NCC2` displayed a TGI of 22.4 µM.
As to `COc1cccc(-c2nn(-c3ccccc3)cc2-c2ccnc(NCCCNS(=O)(=O)c3cccc(F)c3)c2)c1`, the GI50 is 4.05 µM and the TGI is over 100 µM.
Take `O=C1CSC(N2CCN(c3cccc(Cl)c3)CC2)=N1`: the GI50 was over 100 µM and the TGI was over 100 µM.
Turning to `Cc1cc(C)nc(NS(=O)(=O)c2ccc(NC(=O)c3cccc4c(=O)c5ccccc5[nH]c34)cc2)n1`, the TGI is 31.8 µM.
As for `COc1nc2c(cc1S(=O)(=O)c1ccccc1)CCc1c-2cnn1-c1ccccc1Cl`, the GI50 is over 100 µM and the TGI was over 100 µM.
`CC(C)(C)C1=NC(S)NC(CCC(=O)Nc2ccccc2[N+](=O)[O-])=C1` (stereo not drawn): the TGI was over 100 µM.

The subject of another assay is SNB-19 CNS. Kind of assay: NCI tumour cell line growth inhibition, 48 h.
With `CC[n+]1ccc2c(c1)C(=O)c1nccc3c1c-2nc1ccccc13`, the GI50 was 0.212 µM and the TGI was determined as 0.856 µM.
In turn, `CCC1CCC2CCCC(C)N12` (stereo not drawn) yielded a TGI of over 100 µM.
For the compound `COc1ccc(CNC(=O)COc2ccc(/C=N/Nc3nc4ccccc4s3)cc2)cc1`, the GI50 is 2.69 µM and the TGI worked out at 12.6 µM.
As for `CCOC(=O)CCCO`, the TGI was over 100 µM.
Take `COC(=O)[C@@H](C)C[C@H](Cc1ccccc1)NC(=O)c1nc([C@@H](C[C@H](C(C)C)N(C)C(=O)[C@@H](NC(=O)[C@H]2CCCN2C)C(C)C)OC(C)=O)sc1C`: the GI50 was under 0.0025 µM and the TGI is over 25 µM.
Consider `ClCc1ccccc1CSc1ncnc2nc[nH]c12`, for which the GI50 was over 60 µM and the TGI was over 60 µM.
In turn, `O=C(O)Cc1c[nH]c2ccc(F)cc12` registered a TGI of over 100 µM.
Compound `COC(=O)C(CC(=O)c1cc2c(cc1I)OCO2)Cc1cc(OC)c(OC)c(OC)c1I` (stereo not drawn) came in with a TGI of over 100 µM.
Same read-out and setting: then `COc1ccc(/C=C(/C(=O)O)c2cc(OC)c(OC)c(OC)c2)cc1`, with over 100 µM; and `COc1cc2c(cc1O)[C@H](Cc1ccc(Oc3cc(C[C@H]4c5cc(OC)c(OC)cc5CCN4C)ccc3OC)cc1)NCC2`, with 31.9 µM.
As to `O=C1CSC(N2CCN(c3cccc(Cl)c3)CC2)=N1`, the GI50 is over 100 µM and the TGI was over 100 µM.
As to `Cc1cc(C)nc(NS(=O)(=O)c2ccc(NC(=O)c3cccc4c(=O)c5ccccc5[nH]c34)cc2)n1`, the TGI came out at 80.7 µM.
On to `COc1nc2c(cc1S(=O)(=O)c1ccccc1)CCc1c-2cnn1-c1ccccc1Cl`, for which the GI50 was 7.25 µM and the TGI was over 100 µM.
`CC(C)(C)C1=NC(S)NC(CCC(=O)Nc2ccccc2[N+](=O)[O-])=C1` (stereo not drawn): the TGI is over 100 µM.

The next assay concerns SR leukemia. Kind of assay: NCI tumour cell line growth inhibition, 48 h.
Take `CC[n+]1ccc2c(c1)C(=O)c1nccc3c1c-2nc1ccccc13`: the GI50 is 0.339 µM and the TGI was 12.4 µM.
Consider `CCC1CCC2CCCC(C)N12` (stereo not drawn), for which the TGI is over 100 µM.
Regarding `COc1ccc(CNC(=O)COc2ccc(/C=N/Nc3nc4ccccc4s3)cc2)cc1`, the GI50 was 3.05 µM and the TGI was over 100 µM.
As for `CCOC(=O)CCCO`, the TGI was over 100 µM.
With `COC(=O)[C@@H](C)C[C@H](Cc1ccccc1)NC(=O)c1nc([C@@H](C[C@H](C(C)C)N(C)C(=O)[C@@H](NC(=O)[C@H]2CCCN2C)C(C)C)OC(C)=O)sc1C`, the GI50 was under 0.0025 µM and the TGI was over 25 µM.
On the same counts, the results for `ClCc1ccccc1CSc1ncnc2nc[nH]c12` are over 60 µM and over 60 µM.
Consider `O=C(O)Cc1c[nH]c2ccc(F)cc12`, for which the TGI was over 100 µM.
`COC(=O)C(CC(=O)c1cc2c(cc1I)OCO2)Cc1cc(OC)c(OC)c(OC)c1I` (stereo not drawn) displayed a TGI of over 100 µM.
`C/C(=N\NC(N)=S)c1ccc(C)cc1C` displayed a TGI of over 100 µM.
`COc1ccc(/C=C(/C(=O)O)c2cc(OC)c(OC)c(OC)c2)cc1`: the TGI was over 100 µM.
`COc1cc2c(cc1O)[C@H](Cc1ccc(Oc3cc(C[C@H]4c5cc(OC)c(OC)cc5CCN4C)ccc3OC)cc1)NCC2`: the TGI worked out at 30.1 µM.
Consider `COc1cccc(-c2nn(-c3ccccc3)cc2-c2ccnc(NCCCNS(=O)(=O)c3cccc(F)c3)c2)c1`, for which the GI50 is 2.13 µM and the TGI came out at 7.22 µM.
For `O=C1CSC(N2CCN(c3cccc(Cl)c3)CC2)=N1`, the GI50 is over 100 µM and the TGI was over 100 µM.
Take `Cc1cc(C)nc(NS(=O)(=O)c2ccc(NC(=O)c3cccc4c(=O)c5ccccc5[nH]c34)cc2)n1`: the TGI was over 100 µM.
Turning to `COc1nc2c(cc1S(=O)(=O)c1ccccc1)CCc1c-2cnn1-c1ccccc1Cl`, the GI50 is 5.01 µM and the TGI was over 100 µM.
Turning to `CC(C)(C)C1=NC(S)NC(CCC(=O)Nc2ccccc2[N+](=O)[O-])=C1` (stereo not drawn), the TGI was over 100 µM.

The next assay has as its system M14 melanoma. In words: NCI tumour cell line growth inhibition, 48 h.
For `CC[n+]1ccc2c(c1)C(=O)c1nccc3c1c-2nc1ccccc13`, the GI50 was 0.943 µM and the TGI stood at 4.38 µM.
`CCC1CCC2CCCC(C)N12` (stereo not drawn): the TGI was over 100 µM.
Consider `COc1ccc(CNC(=O)COc2ccc(/C=N/Nc3nc4ccccc4s3)cc2)cc1`, for which the GI50 was 4.69 µM and the TGI was over 100 µM.
Turning to `CCOC(=O)CCCO`, the TGI is over 100 µM.
For `ClCc1ccccc1CSc1ncnc2nc[nH]c12`, the GI50 is over 60 µM and the TGI is over 60 µM.
Turning to `O=C(O)Cc1c[nH]c2ccc(F)cc12`, the TGI was over 100 µM.
Take `C/C(=N\NC(N)=S)c1ccc(C)cc1C`: the TGI is over 100 µM.
On the same count and under the same terms, then `COc1ccc(/C=C(/C(=O)O)c2cc(OC)c(OC)c(OC)c2)cc1`, with 99.1 µM.
The compound `COc1cc2c(cc1O)[C@H](Cc1ccc(Oc3cc(C[C@H]4c5cc(OC)c(OC)cc5CCN4C)ccc3OC)cc1)NCC2` returned a TGI of 3.56 µM.
Regarding `COc1cccc(-c2nn(-c3ccccc3)cc2-c2ccnc(NCCCNS(=O)(=O)c3cccc(F)c3)c2)c1`, the GI50 is 3.3 µM and the TGI is over 100 µM.
On to `O=C1CSC(N2CCN(c3cccc(Cl)c3)CC2)=N1`, for which the GI50 was over 100 µM and the TGI was over 100 µM.
For the compound `Cc1cc(C)nc(NS(=O)(=O)c2ccc(NC(=O)c3cccc4c(=O)c5ccccc5[nH]c34)cc2)n1`, the TGI is 40.7 µM.
Turning to `COc1nc2c(cc1S(=O)(=O)c1ccccc1)CCc1c-2cnn1-c1ccccc1Cl`, the GI50 is over 100 µM and the TGI was over 100 µM.
`CC(C)(C)C1=NC(S)NC(CCC(=O)Nc2ccccc2[N+](=O)[O-])=C1` (stereo not drawn) yielded a TGI of over 100 µM.

A further assay relates to COLO 205 colon. In words: NCI tumour cell line growth inhibition, 48 h.
For the compound `CC[n+]1ccc2c(c1)C(=O)c1nccc3c1c-2nc1ccccc13`, the GI50 was 1.13 µM and the TGI was determined as 5.22 µM.
For `CCC1CCC2CCCC(C)N12` (stereo not drawn), the TGI was over 100 µM.
In the case of `COC(=O)[C@@H](C)C[C@H](Cc1ccccc1)NC(=O)c1nc([C@@H](C[C@H](C(C)C)N(C)C(=O)[C@@H](NC(=O)[C@H]2CCCN2C)C(C)C)OC(C)=O)sc1C`, the GI50 is 0.00275 µM and the TGI is 0.0326 µM.
As for `ClCc1ccccc1CSc1ncnc2nc[nH]c12`, the GI50 is over 60 µM and the TGI is over 60 µM.
In the case of `O=C(O)Cc1c[nH]c2ccc(F)cc12`, the TGI is over 100 µM.
As for `COC(=O)C(CC(=O)c1cc2c(cc1I)OCO2)Cc1cc(OC)c(OC)c(OC)c1I` (stereo not drawn), the TGI was over 100 µM.
Regarding `C/C(=N\NC(N)=S)c1ccc(C)cc1C`, the TGI is over 100 µM.
As to `COc1ccc(/C=C(/C(=O)O)c2cc(OC)c(OC)c(OC)c2)cc1`, the TGI was over 100 µM.
On to `COc1cc2c(cc1O)[C@H](Cc1ccc(Oc3cc(C[C@H]4c5cc(OC)c(OC)cc5CCN4C)ccc3OC)cc1)NCC2`, for which the TGI stood at 49.5 µM.
For the compound `COc1cccc(-c2nn(-c3ccccc3)cc2-c2ccnc(NCCCNS(=O)(=O)c3cccc(F)c3)c2)c1`, the GI50 is 2.41 µM and the TGI amounted to 9.39 µM.
On the same counts, the results for `O=C1CSC(N2CCN(c3cccc(Cl)c3)CC2)=N1` are over 100 µM and over 100 µM.
In turn, `Cc1cc(C)nc(NS(=O)(=O)c2ccc(NC(=O)c3cccc4c(=O)c5ccccc5[nH]c34)cc2)n1` returned a TGI of 34.5 µM.
For the compound `COc1nc2c(cc1S(=O)(=O)c1ccccc1)CCc1c-2cnn1-c1ccccc1Cl`, the GI50 is 9.07 µM and the TGI is over 100 µM.
